Test system: VSVΔG-SW (S glycoprotein of the SARS-CoV-2 Wuhan variant)
Assay: microbe, parasite or virus in culture
Type: cell-based
Conditions: for IC50 against VSVΔG-SW: 0.3125–40 μM

SMILES: CNC(=O)C(C#N)(Cc1cc(Cl)cc2c1OCOC2)Cc1cc(Cl)cc2c1OCOC2 [PCM-0068389, N-methyl3-(6-chloro-2,4-dihydro-1,3-benzodioxin-8-yl)-2-[(6-chloro-2,4-dihydro-1,3-benzodioxin-8-yl)methyl]-2-cyanopropionamide]
- IC50 against VSVΔG-SW: lost all activity

SMILES: Cc1cccc(NC(=O)CS(=O)(=O)c2nc(-c3ccccc3)cn2-c2ccc(Cl)cc2)c1C [PCM-0163855, 2-((1-(4-chlorophenyl)-4-phenyl-1H-imidazol-2-yl)sulfonyl)-N-(2,3-dimethylphenyl)acetamide]
- IC50 (Severe acute respiratory syndrome coronavirus 2, read-out: IC50 against VSVΔG-SW): 600 nM

SMILES: COc1ccc2cc3c(N)nn(C(=O)Cc4c[nH]c5ccccc45)c3nc2c1 [PCM-0166392, 1-{6-amino-12-methoxy-2,4,5-triazatricyclo[7.4.0.0³,⁷]trideca-1,3(7),5,8,10,12-hexaen-4-yl}-2-(3-indolyl)-1-ethanone]
- IC50 against VSVΔG-SW: relatively high activity

SMILES: Nc1nc(Nc2ccccc2)sc1C(=O)c1ccccc1Cl [PCM-0179622, (4-amino-2-anilino-1,3-thiazol-5-yl)(o-chlorophenyl)methanone]
- IC50 against VSVΔG-SW: relatively high activity

Source: article PMC11176637 (iScience, 2024)
